Assay results as given in the NIST ThermoML archive (doi:10.1021/je049940f).
Numbers after ± are expanded uncertainties.

Experiments:
[1] = wn = mass fraction of the nth substance listed; details: Liquid
[2] = xn = mol fraction of the nth substance listed; details: 10000 kPa, Liquid

## [Cl-].[Na+] [sodium chloride] + O
[1]; 303.15 K, 10000 kPa, w1 = 0.03
  viscosity: 0.84 ± 0.05 mPa·s
[1]; 303.15 K, 20000 kPa, w1 = 0.03
  viscosity: 0.83 ± 0.05 mPa·s
[1]; 313.15 K, 10000 kPa, w1 = 0.03
  viscosity: 0.68 ± 0.04 mPa·s
[1]; 313.15 K, 20000 kPa, w1 = 0.03
  viscosity: 0.69 ± 0.04 mPa·s
[1]; 323.15 K, 10000 kPa, w1 = 0.03
  viscosity: 0.59 ± 0.04 mPa·s
[1]; 323.15 K, 20000 kPa, w1 = 0.03
  viscosity: 0.59 ± 0.04 mPa·s
[1]; 333.15 K, 10000 kPa, w1 = 0.03
  viscosity: 0.49 ± 0.04 mPa·s
[1]; 333.15 K, 20000 kPa, w1 = 0.03
  viscosity: 0.5 ± 0.04 mPa·s

## O=C=O [carbon dioxide] + O
[2]; 303.15 K, x1 = 0.0073
  viscosity: 0.81 ± 0.05 mPa·s
[2]; 303.15 K, x1 = 0.0148
  viscosity: 0.86 ± 0.05 mPa·s
[2]; 303.15 K, x1 = 0.0238
  viscosity: 0.89 ± 0.06 mPa·s
[2]; 313.15 K, x1 = 0.0107
  viscosity: 0.68 ± 0.04 mPa·s
[2]; 313.15 K, x1 = 0.0207
  viscosity: 0.7 ± 0.06 mPa·s

## O [water] + [Cl-].[Na+]
[1]; 303.15 K, 10000 kPa, w2 = 0
  viscosity: 0.8 ± 0.05 mPa·s
[1]; 313.15 K, 10000 kPa, w2 = 0
  viscosity: 0.66 ± 0.04 mPa·s
[1]; 323.15 K, 10000 kPa, w2 = 0
  viscosity: 0.56 ± 0.04 mPa·s
[1]; 333.15 K, 10000 kPa, w2 = 0
  viscosity: 0.47 ± 0.04 mPa·s
